Patent publication US9999619B2, “Piperidin-4-yl azetidine derivatives as JAK1 inhibitors” (Incyte Corporation, priority 2010, dated 2018)

Tests used:
Assay type in all cases: biochemical
[1] = target: human JAK1 (a.a. 837-1142) (Homo sapiens, UniProt P23458); experiment: In vitro JAK kinase assay (HTRF, phosphorylation of a biotinylated peptide), JAK1; details: measured at 1 mM ATP
Summary of the method: (§1)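 N-terminally His-tagged catalytic domains, baculovirus-expressed in insect cells and purified, were used as enzyme. Reactions ran 1 hr at room temperature and were stopped with a mix of 45 mM EDTA, 300 nM SA-APC and 6 nM Eu-Py20. The HTRF signal was read after 40 min of antibody binding.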

[2] = target: human JAK1 (a.a. 837-1142); experiment: as above; details: ratio of JAK2 IC50 to JAK1 IC50, measured at 1 mM ATP
Summary of the method: as §1

Jak2 (a.a. 828-1132) = Jak2 (a.a. 828-1132) (Homo sapiens (Human), UniProt O60674); experiment: In vitro JAK kinase assay (HTRF, phosphorylation of a biotinylated peptide), JAK2; details: measured at 1 mM ATP
Chain of Jak2 (a.a. 828-1132) (O60674 828-1132): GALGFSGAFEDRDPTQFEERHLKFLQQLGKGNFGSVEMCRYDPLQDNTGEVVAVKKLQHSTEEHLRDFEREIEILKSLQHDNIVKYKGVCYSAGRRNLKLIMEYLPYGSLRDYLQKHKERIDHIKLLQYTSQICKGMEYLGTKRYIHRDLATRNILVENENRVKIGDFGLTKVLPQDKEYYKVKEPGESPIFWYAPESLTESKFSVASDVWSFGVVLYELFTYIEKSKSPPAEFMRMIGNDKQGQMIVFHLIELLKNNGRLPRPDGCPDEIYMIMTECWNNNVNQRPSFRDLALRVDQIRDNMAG
Summary of the method: as §1

SMILES | IC50 [1] [nM] | IC50 Ratio JAK2/JAK1 [2] | IC50 (Jak2 (a.a. 828-1132)) [nM]
CCOC(=O)N1CCC(N2CC(CC#N)(n3cc(-c4ncnc5[nH]ccc45)cn3)C2)CC1 [Example 388, ethyl 4-{3-(cyanomethyl)-3-[4-(7H-pyrrolo[2,3-d]pyrimidin-4-yl)-1H-pyrazol-1-yl]azetidin-1-yl}piperidine-1-carboxylate] | 5 to 20 | 7.6 | 10 to 50
N#CCC1(n2cc(-c3ncnc4[nH]ccc34)cn2)CN(C2CCN(C(=O)OCC3CC3)CC2)C1 [Example 391, cyclopropylmethyl 4-{3-(cyanomethyl)-3-[4-(7H-pyrrolo[2,3-d]pyrimidin-4-yl)-1H-pyrazol-1-yl]azetidin-1-yl}piperidine-1-carboxylate] | 5 to 20 | 10.6 | 50 to 100
CC1(COC(=O)N2CCC(N3CC(CC#N)(n4cc(-c5ncnc6[nH]ccc56)cn4)C3)CC2)CC1 [Example 392, (1-methylcyclopropyl)methyl 4-{3-(cyanomethyl)-3-[4-(7H-pyrrolo[2,3-d]pyrimidin-4-yl)-1H-pyrazol-1-yl]azetidin-1-yl}piperidine-1-carboxylate] | 5 to 20 | 5.6 | 10 to 50
N#CCC1(n2cc(-c3ncnc4[nH]ccc34)cn2)CN(C2CCN(C(=O)OCc3ccc(F)cc3F)CC2)C1 [Example 393, 2,4-difluorobenzyl 4-{3-(cyanomethyl)-3-[4-(7H-pyrrolo[2,3-d]pyrimidin-4-yl)-1H-pyrazol-1-yl]azetidin-1-yl}piperidine-1-carboxylate] | ≤ 5 | 7.1 | 10 to 50
N#CCC1(n2cc(-c3ncnc4[nH]ccc34)cn2)CN(C2CCN(C(=O)OCc3ccc(F)c(F)c3)CC2)C1 [Example 394, 3,4-difluorobenzyl 4-{3-(cyanomethyl)-3-[4-(7H-pyrrolo[2,3-d]pyrimidin-4-yl)-1H-pyrazol-1-yl]azetidin-1-yl}piperidine-1-carboxylate] | 5 to 20 | 11.1 | 50 to 100
N#CCC1(n2cc(-c3ncnc4[nH]ccc34)cn2)CN(C2CCN(C(=O)OCc3cc(F)cc(F)c3)CC2)C1 [Example 395, 3,5-difluorobenzyl 4-{3-(cyanomethyl)-3-[4-(7H-pyrrolo[2,3-d]pyrimidin-4-yl)-1H-pyrazol-1-yl]azetidin-1-yl}piperidine-1-carboxylate] | ≤ 5 | 24.4 | 50 to 100

Now from value to compound:

IC50 [1] [nM] | IC50 Ratio JAK2/JAK1 [2] | IC50 (Jak2 (a.a. 828-1132)) [nM] | SMILES
≤ 5 | 20 | 10 to 50 | N#CCC1(n2cc(-c3ncnc4[nH]ccc34)cn2)CN(C2CCN(C(=O)c3cc(CO)nc(C(F)(F)F)n3)CC2)C1 [Example 381, {1-(1-{[6-(hydroxymethyl)-2-(trifluoromethyl)pyrimidin-4-yl]carbonyl}piperidin-4-yl)-3-[4-(7H-pyrrolo[2,3-d]pyrimidin-4-yl)-1H-pyrazol-1-yl]azetidin-3-yl}acetonitrile]
≤ 5 | 26.7 | 10 to 50 | CC(C)NCc1cc(C(=O)N2CCC(N3CC(CC#N)(n4cc(-c5ncnc6[nH]ccc56)cn4)C3)CC2)nc(C(F)(F)F)n1 [Example 382, {1-(1-{[6-[(isopropylamino)methyl]-2-(trifluoromethyl)pyrimidin-4-yl]carbonyl}piperidin-4-yl)-3-[4-(7H-pyrrolo[2,3-d]pyrimidin-4-yl)-1H-pyrazol-1-yl]azetidin-3-yl}acetonitrile]
≤ 5 | 30.5 | 10 to 50 | CCNCc1cc(C(=O)N2CCC(N3CC(CC#N)(n4cc(-c5ncnc6[nH]ccc56)cn4)C3)CC2)nc(C(F)(F)F)n1 [Example 383, {1-(1-{[6-[(ethylamino)methyl]-2-(trifluoromethyl)pyrimidin-4-yl]carbonyl}piperidin-4-yl)-3-[4-(7H-pyrrolo[2,3-d]pyrimidin-4-yl)-1H-pyrazol-1-yl]azetidin-3-yl}acetonitrile]
≤ 5 | 29.6 | 50 to 100 | COCCN(C)Cc1cc(C(=O)N2CCC(N3CC(CC#N)(n4cc(-c5ncnc6[nH]ccc56)cn4)C3)CC2)nc(C(F)(F)F)n1 [Example 384, {1-(1-{[6-{[(2-methoxyethyl)(methyl)amino]methyl}-2-(trifluoromethyl)pyrimidin-4-yl]carbonyl}piperidin-4-yl)-3-[4-(7H-pyrrolo[2,3-d]pyrimidin-4-yl)-1H-pyrazol-1-yl]azetidin-3-yl}acetonitrile]
≤ 5 | 28.9 | 50 to 100 | CN(CCCO)Cc1cc(C(=O)N2CCC(N3CC(CC#N)(n4cc(-c5ncnc6[nH]ccc56)cn4)C3)CC2)nc(C(F)(F)F)n1 [Example 385, {1-(1-{[6-{[(3-hydroxypropyl)(methyl)amino]methyl}-2-(trifluoromethyl)pyrimidin-4-yl]carbonyl}piperidin-4-yl)-3-[4-(7H-pyrrolo[2,3-d]pyrimidin-4-yl)-1H-pyrazol-1-yl]azetidin-3-yl}acetonitrile]
≤ 5 | 7.7 | 10 to 50 | CCCOC(=O)N1CCC(N2CC(CC#N)(n3cc(-c4ncnc5[nH]ccc45)cn3)C2)CC1 [Example 386, Propyl 4-{3-(cyanomethyl)-3-[4-(7H-pyrrolo[2,3-d]pyrimidin-4-yl)-1H-pyrazol-1-yl]azetidin-1-yl}piperidine-1-carboxylate]
≤ 5 | 9.7 | 10 to 50 | N#CCC1(n2cc(-c3ncnc4[nH]ccc34)cn2)CN(C2CCN(C(=O)OCC3CCC3)CC2)C1 [Example 387, Cyclobutylmethyl 4-{3-(cyanomethyl)-3-[4-(7H-pyrrolo[2,3-d]pyrimidin-4-yl)-1H-pyrazol-1-yl]azetidin-1-yl}piperidine-1-carboxylate]
≤ 5 | 6.5 | 10 to 50 | N#CCC1(n2cc(-c3ncnc4[nH]ccc34)cn2)CN(C2CCN(C(=O)OCc3ccccc3)CC2)C1 [Example 389, benzyl 4-{3-(cyanomethyl)-3-[4-(7H-pyrrolo[2,3-d]pyrimidin-4-yl)-1H-pyrazol-1-yl]azetidin-1-yl}piperidine-1-carboxylate]
≤ 5 | 8.3 | 10 to 50 | CC(C)COC(=O)N1CCC(N2CC(CC#N)(n3cc(-c4ncnc5[nH]ccc45)cn3)C2)CC1 [Example 390, isobutyl 4-{3-(cyanomethyl)-3-[4-(7H-pyrrolo[2,3-d]pyrimidin-4-yl)-1H-pyrazol-1-yl]azetidin-1-yl}piperidine-1-carboxylate]
